Results published in US4997828A, “Method of weight control by low level administration of cobalt protoporphyrin or cobalt mesoporphyrin” (The Rockefeller University, priority 1989, dated 1991).
Entries after “also recorded” stand apart in the source; their conditions may differ.

Columns and labels:
[1] = Weight control and P/F ratio of animals, general statements; format: in vivo; settings: for Improved P/F ratio, lowest dosage / Weight control activity, lowest dosage: decreasing dosage
endocrine system [2] = assay: Endocrine suppression activity in animals, general statements; format: in vivo
endocrine system [3] = settings: cited from earlier work; for Endocrine suppression, weight control and P/F ratio: levels of administration described in the copending application; for Production of gonadal hormones / Production of thyroid hormones: parenteral administration, copending application
[4] = Body weight and naso-anal length of adult male rats after weekly subcutaneous injections (Example 1); format: in vivo, Sprague-Dawley rat
Protocol: (§1) Adult male Sprague-Dawley rats (≈250 g) were injected subcutaneously with CoPP 1 μmol/kg b.w. (12 rats) or vehicle (12 rats) on day 0. Thereafter, injections (Vertical arrows in FIG. 1) were repeated weekly until 10 doses had been given. Animals were allowed Purina rat chow and water ad libitum and animal weights were recorded thrice weekly; means are presented in FIG. 1 ( is control and treated animals). On day 71, 6 control rats and 6 CoPP-treated rats were sacrificed, blood collected for hormone determinations and hepatic mitochondrial and microsomal fractions prepared for biochemical assays. These procedures were repeated at day 124 for the remainder of the animals.
(§2) The effects of 10 serial doses of CoPP 1 μmol/kg b.w. on weight,
(§3) *n = 12; for all other parameters, n = 6 animals per treatment.
**As calculated by Student's Ttest. The only significant changes are in […]

Testosterone [5] = assay: Testosterone concentration in blood of subcutaneously treated rats (Example 1); format: in vivo, Sprague-Dawley rat; settings: 10 serial doses of CoPP 1 μmol/kg b.w. s.c., n = 6
Protocol: as §1, §2, §3

LH = LH concentration in blood of subcutaneously treated rats (Example 1); format: in vivo, Sprague-Dawley rat; settings: Day 124; 10 serial doses of CoPP 1 μmol/kg b.w. s.c.; n = 6; control 21.1 ± 3.29
Protocol: as §1, §2, §3

Insulin = Insulin concentration in blood of subcutaneously treated rats (Example 1); format: in vivo, Sprague-Dawley rat; settings: Day 124; 10 serial doses of CoPP 1 μmol/kg b.w. s.c.; n = 6; control 156 ± 47.6
Protocol: as §1, §2, §3

Cytochrome P-450 [6] = assay: Hepatic cytochrome P-450 content of treated rats (Example 1); format: in vivo, Sprague-Dawley rat; settings: Day 71; 10 serial doses of CoPP 1 μmol/kg b.w. s.c.; n = 6; control 1.06 ± 0.23
Protocol: as §1, §2, §3

Heme oxygenase = assay: Hepatic heme oxygenase activity of treated rats (Example 1); format: in vivo, Sprague-Dawley rat; settings: Day 71; 10 serial doses of CoPP 1 μmol/kg b.w. s.c.; n = 6; control 1.85 ± 0.15
Protocol: as §1, §2, §3

[7] = test system: δ-Aminolevulinic acid synthase; assay: Hepatic δ-aminolevulinic acid synthase activity of treated rats (Example 1); format: in vivo, Sprague-Dawley rat; settings: Day 71; 10 serial doses of CoPP 1 μmol/kg b.w. s.c.; n = 6; control 0.29 ± 0.02
Protocol: as §1, §2, §3

[8] = test system: Aryl hydrocarbon hydroxylase; assay: Hepatic aryl hydrocarbon hydroxylase activity of treated rats (Example 1); format: in vivo, Sprague-Dawley rat; settings: Day 71; 10 serial doses of CoPP 1 μmol/kg b.w. s.c.; n = 6; control 275 ± 24
Protocol: as §1, §2, §3

[9] = test system: 7-Ethoxycoumarin de-ethylase; assay: Hepatic 7-ethoxycoumarin de-ethylase activity of treated rats (Example 1); format: in vivo, Sprague-Dawley rat; settings: Day 71; 10 serial doses of CoPP 1 μmol/kg b.w. s.c.; n = 6; control 0.41 ± 0.04
Protocol: as §1, §2, §3

[10] = test system: Ethylmorphine demethylase; assay: Hepatic ethylmorphine demethylase activity of treated rats (Example 1); format: in vivo, Sprague-Dawley rat; settings: Day 71; 10 serial doses of CoPP 1 μmol/kg b.w. s.c.; n = 6; control 0.43 ± 0.05
Protocol: as §1, §2, §3

Aniline hydroxylase = assay: Hepatic aniline hydroxylase activity of treated rats (Example 1); format: in vivo, Sprague-Dawley rat; settings: Day 71; 10 serial doses of CoPP 1 μmol/kg b.w. s.c.; n = 6; control 59 ± 3.48
Protocol: as §1, §2, §3

hormone concentrations = assay: Hormone concentrations of treated rats, overall statement (Example 1); format: in vivo, Sprague-Dawley rat
Protocol: as §1

[11] = test system: heme pathway and cytochrome P-450-dependent enzyme activities; assay: Heme pathway and cytochrome P-450-dependent enzyme activities of treated rats, overall statement (Example 1); format: in vivo, Sprague-Dawley rat; settings: CoPP 1 μmol/kg b.w. s.c. weekly, 10 doses
Protocol: as §1

[12] = Body weight of adult male Beagle dogs after weekly intramuscular injections (Example 2); format: in vivo, Beagle dog
Protocol: (§4) Adult male Beagle dogs (≈1 year) were housed in single runs with free access to Purina dog chow and water. On day 0, 3 animals were injected intramuscularly in the upper posterolateral aspect of the hindlimb with CoPP 2.5 μmol/kg b.w., and 3 animals with control vehicle. Injections (Vertical arrows in FIG. 2) were repeated weekly, in alternating hindlimbs, until a: total of 9 doses had been given. Animal weights were recorded thrice weekly and means are presented in FIG. 2 ( is control and is treated animals).

testosterone [13] = assay: Serum testosterone of male Beagle dogs after weekly intramuscular injections (Example 2); format: in vivo, Beagle dog; settings: for Testosterone (serum): n = 3
Protocol: as §4
The effects of 9 serial doses of CoPP 2.5 μmol/kg b.w. on serum
testosterone concentrations in male Beagle dogs.

[14] = Body weight of adult male rats after intraventricular injection, dose response (Example 3); format: in vivo, rat
Protocol: Adult male rats were anesthetized during stereotaxic placement of chronic indwelling catheters into the third ventricle of the brain. After 3-4 days post-operative recovery, animals were injected intraventricularly (i/vt) with small volumes (<10μl) of vehicle or CoPP 0.1, 0.2 (o) or 0.4 μmol/kg b.w.

[15] = Body weight of adult male rats treated intraventricularly (Example 4); format: in vivo, rat; settings: i/vt CoPP 0.4 μmol/kg b.w.; 5 animals; FIG. 4
From the text: FIG. 4 depicts the means ±SEM of the body weights of 5 adult male rats treated i/vt with vehicle and 5 animals with CoPP 0.4 μmol/kg b.w. ( , lower panel).

testosterone [16] = assay: Testosterone concentration of adult male rats treated intraventricularly (Example 4); format: in vivo, rat; settings: i/vt CoPP 0.4 μmol/kg b.w.; 5 animals; FIG. 4
[17] = Prolonged body weight loss after single intraventricular treatment (Example 5); format: in vivo, rat; settings: single i/vt CoPP 0.2 or 0.4 μmol/kg b.w.; n=4; FIG. 5
From the text: The prolonged loss of body weight following single i/vt treatments with CoPP 0.2 or 0.4 μmol/kg b.w. are contrasted with that of vehicle-treated rats in FIG. 5 (n=4).

cytochrome P-450 [18] = settings: administration to animals; lowest level 25 μm/kg body weight; cited from earlier work
[19] = similar administration to FIGS. 1-5
[20] = at about 10 μm/kg b.w., say 9.8 μm/kg b.w.
[21] = preferred range 0.1 to 0.3 μm/kg b.w.
[22] = CoPP 1 μmol/kg b.w. s.c. weekly, 10 doses

In the case of `CCC1=C(C)c2cc3[n-]c(cc4[n-]c(cc5nc(cc1n2)C(C)=C5CC)c(C)c4CCC(=O)[O-])c(CCC(=O)[O-])c3C.[Co+2].[H+].[H+]` [CoMP, cobalt mesoporphyrin], the “Improved P/F ratio, lowest dosage” value [1] is reported as “continues even down to as low as 0.1 μm/kg b.w”, the “Weight control activity, lowest dosage” value [1] is reported as “continues even down to as low as 0.1 μm/kg b.w” and the P/F ratio [1, 19] is reported as “improved P/F ratios”. The “Results relative to those illustrated in the figures for CoPP” value [1, 19] was “Comparable results”, the Endocrine suppression activity (endocrine system [2]; at 4 μm/kg b.w.) was “effectively disappeared” and the Endocrine suppression activity (endocrine system [2]; [20]) was “negligible”. For the same compound, the Endocrine suppression activity (endocrine system [2]; dependence on dosage) was “declines as the dosage is decreased”, the Endocrine suppression activity (endocrine system [2]; [21]) was “substantially no endocrine suppression activity” and the “Endocrine suppression, weight control and P/F ratio” value (endocrine system [3]) was “endocrine suppression, weight control and improved P/F ratio all take place simultaneously”. The “Production of gonadal hormones” value (endocrine system [3]) was “limit the production of gonadal hormones” and the “Production of thyroid hormones” value (endocrine system [3]) was “suppress the production of thyroid hormones”.

For `C=CC1=C(C)c2cc3[n-]c(cc4nc(cc5[n-]c(cc1n2)c(C)c5CCC(=O)[O-])C(CCC(=O)[O-])=C4C)c(C)c3C=C.[Co+2].[H+].[H+]` [CoPP, cobalt protoporphyrin], the “Difference in weights of control and CoPP-treated rats” value [4, 22] was “highly significant”, the Body weight ([4]; Day 71, 10 serial doses of CoPP 1 μmol/kg b.w. s.c. weekly, n = 12, control 568 ± 16) was 442 ± 5 g and the “Body weight” value ([4]; Day 124, 10 serial doses of CoPP 1 μmol/kg b.w. s.c., n = 6, control 633 ± 39) was 541 ± 12 g. For the same compound, the “Body weight change (FIG. 1)” value ([4]; adult male rats, Example 1) was “decrease in body weight”, the Testosterone (Testosterone [5]; Day 71, control 1.96 ± 0.29) was 1.72 ± 0.23 ng/mL and the Testosterone (Testosterone [5]; Day 124, control 2.64 ± 0.25) was 3.59 ± 0.90 ng/mL. For the same compound, the LH (LH) was 24.2 ± 6.14 ng/mL, the Insulin (Insulin) was 191 ± 43.6 μU/ml and the “Cytochrome P-450” value (Cytochrome P-450 [6]) was 0.70 ± 0.12 nmol/mg protein. It also gave a Heme oxygenase (Heme oxygenase) of 2.08 ± 0.21 nmol bilirubin/mg prot/hr, a δ-Aminolevulinic acid synthase [7] of 0.30 ± 0.01 μmol ALA/mg prot/90' and an Aryl hydrocarbon hydroxylase [8] of 291 ± 28 pmol 80HBP/mg prot/hr. The 7-Ethoxycoumarin de-ethylase [9] was 0.53 ± 0.03 μmol/mg prot/hr, the Ethylmorphine demethylase [10] was 0.49 ± 0.04 μmol form/mg prot/hr and the Aniline hydroxylase (Aniline hydroxylase) was 74 ± 4.62 nmol p-aminop./mg prot/hr. For the same compound, the “Difference in hormone concentrations vs control” value (hormone concentrations; [22]) was “no significant differences”, the “Hormone concentration change (FIG. 1 with Table I)” value (hormone concentrations; adult male rats, Example 1) was “without decrease in hormone concentration” and the “Difference in heme pathway and cytochrome P-450-dependent enzyme activities vs control” value [11] was “no significant differences”. For the same compound, the “Body weight change (FIG. 2)” value ([12]; adult male dogs, Example 2) was “decrease in body weight”, the Mean weights ([12]; after first 3 weeks, CoPP 2.5 μmol/kg b.w. i.m. weekly) was “progressively decreased thereafter to a nadir at day 74” and the “Recovery of body weight” value ([12]; by day 84, CoPP 2.5 μmol/kg b.w. i.m. weekly, 9 doses) was “returned to their pre-treatment weights”. The Mean weights ([12]; first 3 weeks of treatment, CoPP 2.5 μmol/kg b.w. i.m. weekly) was “unchanged”, the “Loss of body weight” value ([12]; nadir at day 74, CoPP 2.5 μmol/kg b.w. i.m. weekly, 9 doses) was “approximately 25 % of their body weight” and the “Testosterone (serum)” value (testosterone [13]; Day 0 (before start of the experiment), CoPP 2.5 μmol/kg b.w. group, control 1.82 ± 0.65) was 2.03 ± 0.57 ng/mL. The “Testosterone (serum)” value (testosterone [13]; Day 62, 9 serial doses of CoPP 2.5 μmol/kg b.w. i.m. weekly, control 1.73 ± 0.52) was 2.15 ± 1.52 ng/mL, the “Testosterone (serum)” value (testosterone [13]; Day 112, 9 serial doses of CoPP 2.5 μmol/kg b.w. i.m. weekly, control 1.67 ± 0.03) was 1.92 ± 0.83 ng/mL and the “Testosterone level change (FIG. 2 with Table II)” value (testosterone [13]; adult male dogs, Example 2) was “no decrease in testosterone levels”. The “Effect on testosterone concentrations” value (testosterone [13]; days 62 and 112, CoPP 2.5 μmol/kg b.w. i.m.) was “no effect”, the “Weight loss (FIG. 3)” value ([14]; adult male rats, intraventricular administration, Example 3) was “weight loss achieved” and the “Effects on body weight, dose dependence” value ([14]; i/vt CoPP 0.1, 0.2 or 0.4 μmol/kg b.w., 4-6 animals per group) was “dose responsive”. For the same compound, the “i/vt dosage relative to s/c dosage required to elicit the same changes (fold less)” value ([14]; intraventricular versus s/c administration) was 50-100 fold less, the Weight loss [15] was “typical weight loss” and the “Testosterone concentrations vs vehicle-treated rats” value (testosterone [16]) was “without significant changes in testosterone concentration; also recorded: not significantly different”. The “Loss of body weight after single i/vt treatment” value [17] was “prolonged weight loss; also recorded: prompt decrease in weight”, the “Weight differential between treated and untreated animals” value [17] was “maintained for the duration of the treatment” and the “Improved P/F ratio, lowest dosage” value [1] was “continues even down to as low as 0.1 μm/kg b.w”. The “Weight control activity, lowest dosage” value [1] was “continues even down to as low as 0.1 μm/kg b.w”, the P/F ratio [1, 19] was “improved P/F ratios” and the Endocrine suppression activity (endocrine system [2]; at 4 μm/kg b.w.) was “effectively disappeared”. The Endocrine suppression activity (endocrine system [2]; [20]) was “negligible”, the Endocrine suppression activity (endocrine system [2]; dependence on dosage) was “declines as the dosage is decreased” and the Endocrine suppression activity (endocrine system [2]; [21]) was “substantially no endocrine suppression activity”. The “Cytochrome P-450 content of the liver” value (cytochrome P-450 [18]) was “deplete the cytochrome P-450 content of the liver”, the “Endocrine suppression, weight control and P/F ratio” value (endocrine system [3]) was “endocrine suppression, weight control and improved P/F ratio all take place simultaneously” and the “Production of gonadal hormones” value (endocrine system [3]) was “limit the production of gonadal hormones”. For the same compound, the “Production of thyroid hormones” value (endocrine system [3]) was “suppress the production of thyroid hormones”.
